Assay results taken from publication PMC11203957, “Naphthoquinone-Quinolone Hybrids with Antitumor Effects on Breast Cancer Cell Lines—From the Synthesis to 3D-Cell Culture Effects” (International Journal of Molecular Sciences, 2024).

How the values were obtained:
[1] = test system: gastric cancer cells ACP03; set-up: method as in PMID 24858098; conditions: cited from earlier work
[2] = test system: topoisomerase II; set-up: method as in PMID 24858098; conditions: in vitro and in silico studies; cited from earlier work
[3] = test system: MCF-7; assay: MTT cell viability assay, MCF-7 (2D culture); assay type: cell-based, human; conditions: for IC50: Homo sapiens, MCF7, MTT, 24 h treatment, 2D culture, read-out: IC50 ± SEM MCF-7; for SI IC50 MCF10A/IC50 MCF-7: selectivity index
Experimental: (§1) Our first approach to assessing the anticancer activity of the novel 1,4-naphthoquinone/4-quinolone conjugates 11a–f on breast cancer cells involved comparing their effects in the MTT cell viability assay to determine the half-maximal inhibitory concentration (IC50) in the 2D cell culture model. Doxorubicin and 1,4-naphthoquinone were used as controls. Concentration-response curves were obtained with the conjugates at concentrations ranging from 0 to 200 µM. […] This observation aligns with the structural characteristics of this derivative, which features the largest alkyl substituent at position R^1.
(§2) The IC50 values were calculated using GraphPad Prism v. 8.0.1, and the selectivity index was estimated as the ratio between the IC50 value of MCF10A/IC50 value of MDA-MB-231 or MCF-7 [33], for each compound.

[4] = test system: MDA-MB-231; assay: MTT cell viability assay, MDA-MB-231 (2D culture); assay type: cell-based, human; conditions: for IC50: Homo sapiens, MDA-MB-231, MTT, 24 h treatment, 2D culture, read-out: IC50 ± SEM MDA-MB-231; for SI IC50 MCF10A/ IC50 MDA-MB-231: selectivity index
Experimental: as §1, §2

[5] = test system: MCF-7; assay: Clonogenic assay, MCF-7; assay type: cell-based, human; conditions: 25 µM, 24 h treatment, about 14 days growth
Excerpt: (§3) The clonogenic assay is an effective tool for investigating individual cells’ ability to form colonies. Tumor cells with the ability to generate an expanding family of descendants are clonogenic. Therefore, a clonogenic assay is a simple method to verify one of the important characteristics of cancer cells, which is the ability to detach from the site of origin and to form metastases in other locations. […] For instance, 90–99% of the tumor cells in FaDU tumors, a type of human squamous cell carcinoma observed in nude mice, are non-clonogenic. To achieve the main goal of cancer treatment, which is tumor eradication, it is necessary to inactivate all clonogenic cells through either cell killing or the induction of a permanent state of dormancy, thereby eliminating their clonogenic capacity. The assessment of the potential of a drug to achieve a curative outcome, i.e., effectively neutralizing clonogenic tumor cells, requires the utilization of experimental endpoints that accurately reflect the response of clonogenic cells. Clonogenic endpoints hold particular significance when novel anticancer agents are incorporated into curative therapeutic regimens, such as in combination with radiotherapy or chemotherapy. Thus, clonogenic assays were conducted for compounds 11a–f and 1,4-naphthoquinone.
(§4) Figure 6 The inhibition of colony formation by compounds 11a–f using MCF-7 (A,C) and MDA-MB-231 (B,D) cell lines. Cells were treated with derivatives 11a–f at 25 µM for 24 h. Subsequently, 400 cells were plated on 6-well plates for approximately 14 days. Then, cells were stained with crystal violet dye to visualize the colonies formed.

[6] = test system: MCF10A; assay: MTT cell viability assay, non-tumor MCF10A; conditions: Homo sapiens, MCF-10A, 24 h, read-out: IC50 ± SEM MCF10A
[7] = test system: cervix adenocarcinoma (HeLa); set-up: method as in PMID 22406451; conditions: cited from earlier work
[8] = test system: hepatocellular carcinoma (BEL7402); set-up: method as in PMID 22406451; conditions: cited from earlier work
[9] = test system: MCF-7 cells; assay: Annexin V/PI apoptosis assay, MCF-7; assay type: cell-based, human; conditions: 50 µM
Experimental: (§5) We investigated apoptosis induction through the annexin V/PI protocol, as described in Section 3. Doxorubicin, 1,4-naphthoquinone, and cisplatin were used as controls. […] For MDA-MB-231 cells (Figure 5B), the effects observed were more prominent at the concentrations tested.
(§6) For the apoptosis assay, the manufacturer’s instructions were followed (Dead Cell Apoptosis Kit with Annexin V for Flow Cytometry, Thermo Fisher Scientific, MA, USA). The cells were analyzed in a Countess II FL cell counter (Thermo Fisher Scientific, Waltham, MA, USA).
(§7) Figure 5 Naphthoquinone-quinolone hybrids induce apoptosis in MCF-7 (A) and MDA-MB-231 (B) cells at different levels.

[10] = test system: MDA-MB-231 cells; assay: Annexin V/PI apoptosis assay, MDA-MB-231; assay type: cell-based, human; conditions: 50 µM
Experimental: as §5, §6, §7

[11] = test system: MDA-MB-231 cells; assay: Clonogenic assay, MDA-MB-231; assay type: cell-based, human; conditions: 25 µM, 24 h treatment, about 14 days growth
Excerpt: as §3, §4

[12] = test system: MCF-7 cells; assay: Reversibility assay (MTT viability), MCF-7; assay type: cell-based, human; conditions: 25 µM; 24 h, 24 + 24 h, 48 h
Experimental: (§8) Our next issue concerned the reversibility of the effects: whether they persisted through a longer time of treatment, or if they ceased after the removal of the treatments. To investigate this, we used each compound at 25 µM and treated the MCF-7 and MDA-MB-231 cells for 24 h and 48 h. The 48-h treatment group was further subdivided into two different categories: the first was treated for 24 h, after which the culture medium was replaced with fresh medium without the compound, and then incubated for an additional 24-h period (24 + 24 h). In the second category, cells were continuously exposed to the compound for the entire 48-h duration, without any handling during this period. Cell viability was assessed as the evaluation parameter. The results are shown in Figure 7A (MCF-7) and Figure 7B (MDA-MB-231). […] In MCF-7 cells, the effect observed is similar, with a lower intensity of apoptosis induction.
(§9) Figure 7 Reversibility assay: investigating the effects of treatment durability on cell viability of (A) MCF-7 cells and (B) MDA-MB-231 cells. Cells were treated in three different manners: (1) for 24 h, continuously; (2) for 24 h, followed by removal of the treatment and addition of fresh medium, then further cultivation for 24 h; and (3) for a total period of 48 h. Cell viability was measured using the MTT assay. * p < 0.05, Student’s t-test, n = 3.

[13] = test system: MDA-MB-231 cells; assay: Reversibility assay (MTT viability), MDA-MB-231; assay type: cell-based, human; conditions: 25 µM; 24 h, 24 + 24 h, 48 h
Experimental: as §8, §9

[14] = test system: MCF-7 spheroids; assay: 3D-cell culture (spheroids), morphology and acid phosphatase viability, MCF-7; assay type: cell-based, human; conditions: 25 µM, 48 h
Excerpt: 3D-cell cultures display features that resemble in vivo tumors: due to their tridimensional structure, cells are not provided with the same amounts of oxygen and nutrients in the center as on the surface, resulting in a gradient that leads to the formation of a necrotic core, similar to the in vivo tumor environment. In the 3D-cell culture model used here, spheroids are formed due to low interaction with the microplate bottom, promoted by its coating with agarose, and strong cell-to-cell interactions in MCF-7 cells, generating a finely compact and homogeneous spheroid. For MDA-MB-231 cells, the addition of collagen I is an extra stimulus necessary for spheroid stabilization. Spheroids were prepared and grown for 48 h and then treated with the compounds at 25 µM. After 48 h, morphological changes were observed, and their viabilities were measured as described in Section 3. The exposure to the compounds for 48 h promoted visible changes in the morphologies of spheroids for both cell lines when compared to the controls (Figure 8). […] While it is more complicated to imply changes in the proliferative (surface) region of the MDA-MB-231 spheroids (Figure 8B), they are observed together with morphological changes after treatment, making them appear more crumbly and lose their round shape. These findings are in line with the viability test, which detected a reduction in the viabilities for all of them, which is significant compared to the control (p < 0.05), except for 11a in MDA-MB-231 spheroids (Figure 8C,D). We should also highlight that the concentrations necessary for an effect on spheroids are expected to be higher when compared to 2D-cell culture models. Here, we observed changes using 25 µM of each compound, as performed in the other experiments.
The procedure was performed as described by Gong et al., with a few modifications. A total of 5000 cells per well were plated on 96-well plates with bottoms previously covered with 50 µL of a 1% agarose solution. The plates were then centrifuged at 300× g for 10 min. For MDA-MB-231 cells, collagen I from rat tail (Gibco) was added to a 3 µg/mL final concentration in the cell suspension. […] The cell spheroids/aggregates were treated with fresh medium added to the compounds and their viability was evaluated after 48 h. Spheroids were photographed with an inverted microscope Bel INV-100 (Bel Engineering, Monza, Italy) equipped with a digital camera.
To measure spheroids viability, this viability assay was performed following Friedrich et al.. The medium was removed from wells and spheroids were washed with PBS. Then, 100 µL of a solution containing 2 mg/mL p-nitrophenyl phosphate (PNPP), 0.1 M citric acid, and 0.1% (v/v) Triton X, pH 5.0 were added. […]

SMILES: Cc1ccc(NC(=O)c2c[nH]c3ccc(Cl)cc3c2=O)cc1 [Compound 2a]
- IC50 [1]: 1.92 µM
- topoisomerase II activity inhibition [2]: able to inhibit topoisomerase II activity

SMILES: O=C(Nc1cc(Cl)ccc1Cl)c1c[nH]c2ccc(Cl)cc2c1=O [Compound 2b]
- IC50 [1]: 5.18 µM
- topoisomerase II activity inhibition [2]: able to inhibit topoisomerase II activity

SMILES: CCCCCn1cc(C(=O)O)c(=O)c2cc(C3=CC(=O)c4ccccc4C3=O)ccc21 [Compound 11f, 6-(1,4-dioxo-1,4-dihydronaphthalen-2-yl)-4-oxo-1-pentyl-1,4-dihydroquinoline-3-carboxylic acid]
- IC50 [3]: 65.7 ± 1.1 µM
- SI IC50 MCF10A/IC50 MCF-7 [3]: 0.11 ± 0.16
- IC50 [4]: 24.1 ± 1.1 µM
- SI IC50 MCF10A/ IC50 MDA-MB-231 [4]: 0.29 ± 0.16
- colony formation, MCF-7 [5]: most effective
- melting point: > 300 °C
- IC50 [6]: 6.92 ± 1.1 µM

SMILES: CCCCCCCCC/C=C\CCCCc1cc(=O)c2ccccc2n1C [Compound 3]
- IC50 [7]: 18.5 ± 1.2 µM
- IC50 [8]: 15.8 ± 1.4 µM

SMILES: N.N.[Cl][Pt][Cl] [cisplatin]
- early apoptosis induction (annexin V/PI), MCF-7 [9]: comparable
- apoptosis profile (annexin V/PI), MDA-MB-231 [10]: lower effect

SMILES: CCOC(=O)c1cn(Cc2ccccc2)c2ccc(C3=CC(=O)c4ccccc4C3=O)cc2c1=O [Compound 11b, Ethyl 1-benzyl-6-(1,4-dioxo-1,4-dihydronaphthalen-2-yl)-4-oxo-1,4-dihydroquinoline-3-carboxylate]
- IC50 [3]: 19.4 ± 1.1 µM
- SI IC50 MCF10A/IC50 MCF-7 [3]: 0.55 ± 0.13
- IC50 [4]: 15.1 ± 1 µM
- SI IC50 MCF10A/ IC50 MDA-MB-231 [4]: 0.71 ± 0.14
- early apoptosis induction (annexin V/PI), MCF-7 [9]: comparable
- IC50 [6]: 10.7 ± 1.3 µM

SMILES: O=C1C=CC(=O)c2ccccc21 [1,4-Naphthoquinone, 1,4-naphthoquinone, reference compound]
- IC50 [3]: 29.5 ± 1 µM
- SI IC50 MCF10A/IC50 MCF-7 [3]: 0.30 ± 0.13
- IC50 [4]: 19.3 ± 1.1 µM
- SI IC50 MCF10A/ IC50 MDA-MB-231 [4]: 0.46 ± 0.14
- early apoptosis induction (annexin V/PI), MCF-7 [9]: comparable
- colony formation, MCF-7 [5]: Significant reductions in colony formation
- colony formation, MDA-MB-231 [11]: Significant reductions in colony formation
- duration and reversibility of the effect on cell viability, MCF-7 [12]: irreversible effect
- duration and reversibility of the effect on cell viability, MDA-MB-231 [13]: irreversible effect
- spheroid morphology, MCF-7 [14]: changes in the morphology
- IC50 [6]: 8.78 ± 1.1 µM

SMILES: CCCCCn1cc(C(=O)OCC)c(=O)c2cc(C3=CC(=O)c4ccccc4C3=O)ccc21 [Compound 11c, Ethyl 6-(1,4-dioxo-1,4-dihydronaphthalen-2-yl)-4-oxo-1-pentyl-1,4-dihydroquinoline-3-carboxylate]
- IC50 [3]: 32.8 ± 1.1 µM
- SI IC50 MCF10A/IC50 MCF-7 [3]: 0.31 ± 0.11
- IC50 [4]: 16.4 ± 1.1 µM
- SI IC50 MCF10A/ IC50 MDA-MB-231 [4]: 0.62 ± 0.12
- apoptosis profile (annexin V/PI), MDA-MB-231 [10]: induces apoptosis
- colony formation, MCF-7 [5]: most effective
- duration and reversibility of the effect on cell viability, MCF-7 [12]: short effect
- duration and reversibility of the effect on cell viability, MDA-MB-231 [13]: not capable of sustaining the antitumor effect after 48 h of treatment
- IC50 [6]: 10.2 ± 1.1 µM

SMILES: COc1cccc2c1C(=O)c1c(O)c3c(c(O)c1C2=O)C[C@@](O)(C(=O)CO)C[C@@H]3O[C@H]1C[C@H](N)[C@H](O)[C@H](C)O1 [Doxorubicin, reference compound]
- IC50 [3]: 14.2 ± 1.1 µM
- SI IC50 MCF10A/IC50 MCF-7 [3]: 0.10 ± 0.09
- IC50 [4]: 2.76 ± 1.2 µM
- SI IC50 MCF10A/ IC50 MDA-MB-231 [4]: 0.54 ± 0.10
- early apoptosis induction (annexin V/PI), MCF-7 [9]: shows early apoptosis but also shows late apoptosis/necrosis in a great proportion
- apoptosis profile (annexin V/PI), MDA-MB-231 [10]: effects similar to those seen on MCF-7 cells
- spheroid morphology, MCF-7 [14]: changes in the morphology
- IC50 [1]: 0.274 µM
- IC50 [7]: 21.1 ± 1.9 µM
- IC50 [8]: 19.3 ± 1.2 µM
- IC50 [6]: 1.49 ± 1.3 µM

SMILES: CCn1cc(C(=O)O)c(=O)c2cc(C3=CC(=O)c4ccccc4C3=O)ccc21 [Compound 11d, 6-(1,4-dioxo-1,4-dihydronaphthalen-2-yl)-1-ethyl-4-oxo-1,4-dihydroquinoline-3-carboxylic acid]
- IC50 [3]: 25.1 ± 1.2 µM
- SI IC50 MCF10A/IC50 MCF-7 [3]: 0.85 ± 0.07
- IC50 [4]: 20.1 ± 1.1 µM
- SI IC50 MCF10A/ IC50 MDA-MB-231 [4]: 1.07 ± 0.08
- colony formation, MDA-MB-231 [11]: most effective
- spheroid morphology, MCF-7 [14]: changes in the morphology
- melting point: > 300 °C
- IC50 [6]: 21.5 ± 1.2 µM
